From US10407382B2, “EP4 agonists as therapeutic compounds” (ALLERGAN, INC., priority 2014, dated 2019)

Tests used:
[1] = biological target: T1, EP2 (Homo sapiens, UniProt P43116); experiment: Ki competition binding, EP2; parameters: expressed in transfected cells; settings: [3H]PGE2 competition; NA = no activity
Description: (§1) Data from running binding and activity studies on the compounds of the invention were carried out as described in U.S. Pat. No. 7,427,685, the contents of which are incorporated herein by reference.
Competition binding experiments were performed in a medium containing Hank's balanced salt solution, Hepes 20 mM, pH 7.3, membranes (˜60 μg protein) or 2×10^5 cells from HEK 293 cells stably expressing human EP2 receptors, [^3H]PGE2 (10 nM) and various concentrations of test compounds in a total volume of 300 μl. Reaction mixtures were incubated at 23° C. for 60 min, and were filtered over Whatman GF IB filters under vacuum. Filters were washed three times with 5 ml ice-cold buffer containing 50 mM Tris/HCl (PH 7.3). Non-specific binding was estimated in the presence of excess unlabeled PGE2 (10 μM). Binding data fitted to the binding model for a single class of binding sites, using nonlinear regression analysis. IC50 values thus obtained were converted to Ki using the equation of Ki=(IC50/(1+[L]/KD) where [L] represents PGE2 concentration (10 nM) and KD the dissociation constant for [^3H]PGE2 at human EP2 receptors (40 nM).
(§2) Cells Stably Expressing EP1, EP2, EP4, and FP Receptors
(§3) HEK-293 cells stably expressing the human or feline FP receptor, or EP1, EP2, or EP4 receptors were washed with TME buffer, scraped from the bottom of the flasks, and homogenized for 30 sec using a Brinkman PT 10/35 polytron. TME buffer was added to achieve a final 40 ml volume in the centrifuge tubes (the composition of TME is 100 mM TRIS base, 20 mM MgCl2, […]; ION HCl is added to achieve a pH of 7.4).
(§4) The cell homogenate was centrifuged at 19000 rpm for 20 min at 4° C. using a Beckman Ti-60 rotor. The resultant pellet was resuspended in TME buffer to give a final 1 mg/ml protein concentration, as determined by Biorad assay. Radioligand binding competition assays vs. [^3H-]17-phenyl PGF2α (5 nM) were performed in a 100 μl volume for 60 min. Binding reactions were started by adding plasma membrane fraction. The reaction was terminated by the addition of 4 ml ice-cold TRIS-HCl buffer and rapid filtration through glass fiber GF/B filters using a Brandel cell harvester. The filters were washed 3 times with ice-cold buffer and oven dried for one hour.
(§5) [^3H-] PGE2 (specific activity 180 Ci mmol) was used as the radio ligand for EP receptors. [^3H] 17-phenyl PGF2α was employed for FP receptor binding studies. Binding studies employing EP1, EP2, EP4 and FP receptors were performed in duplicate in at least three separate experiments. A 200 μl assay volume was used. Incubations were for 60 min at 25° C. and were terminated by the addition of 4 ml of ice-cold 50 mM TRIS-HCl, followed by rapid filtration through Whatman GF/B filters and three additional 4 ml washes in a cell harvester (Brandel). Competition studies were performed using a final concentration of 5 nM [^3H]-PGE2, or 5 nM [^3H] 17-phenyl PGF2α and non-specific binding determined with 10^−5M of unlabeled PGE2, or 17-phenyl PGF2α, according to receptor subtype studied.

[2] = biological target: T2, EP4 (Homo sapiens, UniProt P35408); experiment: Radioligand binding, EP4; parameters: expressed in transfected cells; membrane fraction; settings: [3H]PGE2 competition
Description: as §1, §2, §3, §4, §5

[3] = biological target: T1, EP2; experiment: cAMP assay, EP2; format: cell-based; parameters: expressed in transfected cells; host or cells: HEK-EBNA cells; settings: HEK-EBNA cells expressing EP2
Description: (§6) A 384-well drug plate was prepared to contain 6 test compounds, PGE2 and cAMP in 16 serial dilutions in triplicate, using a Biomek station. HEK-EBNA cells expressing a target PG receptor subtype (EP2 or EP4) were suspended in a stimulation buffer (HBSS, 0.1% BSA, 0.5 mM IBMX and 5 mM HEPES, pH 7.4) in a density of 10^4 cells/5 μL. The reaction was initiated by mixing 5 μL drug dilutions with 5 μL of HEK-EBNA cells in a well, carried out for 30 min at room temperature, and followed by the addition of 5 μL anti-cAMP acceptor beads in the control buffer with Tween-20 (25 mM NaCl, 0.03% Tween-20, 5 mM HEPES, pH 7.4). After 30 min in the dark at room temperature, the mixtures were incubated with 15 μL biotinylated-cAMP/strepavidin donor beads in Lysis/Detection buffer (0.1% BSA, 0.3% Tween-20 and 5 mM HEPES, pH 7.4) for 45 min at the room temperature. Fluorescence changes were read using a Fusion-alpha HT microplate reader.

[4] = biological target: T2, EP4; experiment: cAMP assay, EP4; format: cell-based; parameters: expressed in transfected cells; host or cells: HEK-EBNA cells; settings: HEK-EBNA cells expressing EP4
Description: as §6

[5] = biological target: T3, hIP (Homo sapiens, UniProt P43119); experiment: FLIPR calcium signal, hIP; format: cell-based; settings: HEK-293(EBNA) cells; NA = no activity; read-out: Other Receptors EC50 hIP
T3 construct: expressed in transfected cells
Description: Methods for FLIPR™ Studies
HEK-293(EBNA) cells, stably expressing one type or subtype of recombinant human prostaglandin receptors (prostaglandin receptors expressed: hDP/Gqs5; hEP1; hEP2/Gqs5; hEP3A/Gqi5; hEP4/Gqs5; hFP; hIP; hTP), were cultured in 100 mm culture dishes in high-glucose DMEM medium containing 10% fetal bovine serum, 2 mM I-glutamine, 250 μg/ml geneticin (G418) and 200 μg/ml hygromycin B as selection markers, and 100 units/ml penicillin G, 100 μg/ml streptomycin and 0.25 μg/ml amphotericin B.
(b) Calcium Signal Studies on the FLIPR™
Cells were seeded at a density of 5×10^4 cells per well in Biocoat® Poly-D-lysine-coated black-wall, clear-bottom 96-well plates (Becton-Dickinson) and allowed to attach overnight in an incubator at 37° C. Cells were then washed two times with HBSS-HEPES buffer (Hanks Balanced Salt Solution without bicarbonate and phenol red, 20 mM HEPES, pH 7.4) using a Denley Cellwash plate washer (Labsystems). […]
Cells were excited with an Argon laser at 488 nm, and emission was measured through a 510-570 nm bandwidth emission filter (FLIPR™, Molecular Devices, Sunnyvale, Calif.). […] The peak increase in fluorescence intensity was recorded for each well. […] The peak fluorescence change in each drug-containing well was then expressed relative to the controls. […]

T2 sequence (P35408 whole entry): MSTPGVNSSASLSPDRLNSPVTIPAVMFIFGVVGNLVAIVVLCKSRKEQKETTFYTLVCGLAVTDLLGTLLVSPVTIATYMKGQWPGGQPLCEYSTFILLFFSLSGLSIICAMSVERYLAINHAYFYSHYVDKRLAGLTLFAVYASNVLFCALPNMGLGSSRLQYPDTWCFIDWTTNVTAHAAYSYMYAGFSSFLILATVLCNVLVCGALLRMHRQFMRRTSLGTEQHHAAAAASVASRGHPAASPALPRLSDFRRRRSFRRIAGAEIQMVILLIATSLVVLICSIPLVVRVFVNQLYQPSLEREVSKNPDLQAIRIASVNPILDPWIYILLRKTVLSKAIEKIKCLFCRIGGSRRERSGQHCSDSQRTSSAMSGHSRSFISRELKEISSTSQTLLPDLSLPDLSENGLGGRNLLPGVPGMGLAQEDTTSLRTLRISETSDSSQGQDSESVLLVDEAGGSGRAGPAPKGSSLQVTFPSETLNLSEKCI
T1 sequence (P43116 whole entry): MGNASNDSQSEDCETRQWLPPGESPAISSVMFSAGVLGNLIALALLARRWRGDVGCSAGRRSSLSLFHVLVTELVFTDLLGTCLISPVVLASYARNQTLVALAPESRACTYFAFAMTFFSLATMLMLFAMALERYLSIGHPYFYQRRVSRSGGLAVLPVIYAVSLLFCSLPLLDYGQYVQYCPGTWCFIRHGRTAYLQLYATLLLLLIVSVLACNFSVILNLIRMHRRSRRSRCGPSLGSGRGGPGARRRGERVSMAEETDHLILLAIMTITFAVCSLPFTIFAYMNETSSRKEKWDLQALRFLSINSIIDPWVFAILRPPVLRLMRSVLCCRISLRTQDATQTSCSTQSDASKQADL
T3 sequence (P43119 whole entry): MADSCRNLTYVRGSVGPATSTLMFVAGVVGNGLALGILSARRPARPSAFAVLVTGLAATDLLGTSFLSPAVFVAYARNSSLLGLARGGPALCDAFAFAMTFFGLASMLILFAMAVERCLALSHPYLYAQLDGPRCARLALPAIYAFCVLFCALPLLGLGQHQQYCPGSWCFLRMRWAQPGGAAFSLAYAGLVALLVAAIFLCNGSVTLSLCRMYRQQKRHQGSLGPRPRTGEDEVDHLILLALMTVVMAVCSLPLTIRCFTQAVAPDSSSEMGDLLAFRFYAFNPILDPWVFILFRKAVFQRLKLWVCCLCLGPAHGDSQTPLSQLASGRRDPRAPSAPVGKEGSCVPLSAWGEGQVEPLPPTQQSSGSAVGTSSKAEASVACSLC

Compound	Ki [1] [nM]	Ki [2] [nM]	EC50 [3] [nM]	EC50 [4] [nM]	EC50 [5] [nM]
COc1cc(CC2CCCCC2C(=O)NCc2ccc(C(=O)O)cc2)cc(OC)c1 (single isomer, unassigned) [Example 10, 4-((2-(3,5-Dimethoxybenzyl)cyclohexanecarboxamido)methyl)benzoic Acid]	908	2	25	0.2	
COc1cc(CC2=C(C(=O)NCc3ccc(C(=O)O)cc3)CCC2)cc(OC)c1 [Example 3, 4-((2-(3,5-Dimethoxybenzyl)cyclopent-1-enecarboxamido)methyl)benzoic Acid]	1120	5	33	1	
O=C(O)c1ccc(CNC(=O)C2CCCC2Cc2cccc(C(F)(F)F)c2)cc1 (single isomer, unassigned) [Example 5, 4-((2-(3-(Trifluoromethyl)benzyl)cyclopentanecarboxamido)methyl)benzoic Acid]	154	8	13	> 10000	
O=C(O)c1ccc(CNC(=O)C2CCCC2Cc2cccc(C(F)(F)F)c2)cc1 (single isomer, unassigned) [Example 6, 4-((2-(3-(Trifluoromethyl)benzyl)cyclopentanecarboxamido)methyl)benzoic Acid]	733	18	10	> 10000	> 10000
COc1ccc(CC2=C(C(=O)NCc3ccc(C(=O)O)cc3)CCCC2)cc1 [Example 33, 4-((2-(4-Methoxybenzyl)cyclohex-1-enecarboxamido)methyl)benzoic Acid]	1140	1		> 10000	
COc1ccc(OC)c(CC2=C(C(=O)NCc3ccc(C(=O)O)cc3)CCCC2)c1 [Example 17, 4-((2-(2,5-Dimethoxybenzyl)cyclohex-1-enecarboxamido)methyl)benzoic Acid]	403	8		> 10000	
O=C(NCc1ccc(C(=O)O)cc1)C1=C(Cc2cccc(C(F)(F)F)c2)CCC1 [Example 4, 4-((2-(3-(Trifluoromethyl)benzyl)cyclopent-1-enecarboxamido)methyl)benzoic Acid]	109	7	2	> 10000	
O=C(NCc1ccc(C(=O)O)cc1)C1=C(Cc2ccccc2Cl)CCCC1 [Example 24, 4-((2-(2-Chlorobenzyl)cyclohex-1-enecarboxamido)methyl)benzoic Acid]	83	4		> 10000	
COc1cc(CC2=C(C(=O)NCc3ccc(C(=O)O)cc3)CCCC2)cc(OC)c1 [Example 8, 4-((2-(3,5-Dimethoxybenzyl)cyclohex-1-enecarboxamido)methyl)benzoic Acid]	177	1	2	0.2	
COc1cc(CC2CCCCC2C(=O)NCc2ccc(C(=O)O)cc2)cc(OC)c1 (single isomer, unassigned) [Example 9, 4-((2-(3,5-Dimethoxybenzyl)cyclohexanecarboxamido)methyl)benzoic Acid]	2150	2	389	> 10000	
COc1ccc(CC2CCCCC2C(=O)NCc2ccc(C(=O)O)cc2)cc1 (single isomer, unassigned) [Example 34, 4-((2-(4-Methoxybenzyl)cyclohexanecarboxamido)methyl)benzoic Acid]	> 10000	44		> 10000	
COc1cc(C/C2=C(\C(=O)NCc3ccc(C(=O)O)cc3)CCCCCC2)cc(OC)c1 [Example 20, 4-((2-(3,5-Dimethoxybenzyl)cyclooct-1-enecarboxamido)methyl)benzoic Acid]	> 10000	0.2		> 10000	
COc1cc(CC2=C(C(=O)NCc3ccc(C(=O)O)cc3)CCCCC2)cc(OC)c1 [Example 11, 4-((2-(3,5-Dimethoxybenzyl)cyclohept-1-enecarboxamido)methyl)benzoic Acid]	2780	1	48	> 10000	> 10000
COc1cc(CC2CCCCCC2C(=O)NCc2ccc(C(=O)O)cc2)cc(OC)c1 (single isomer, unassigned) [Example 13, 4-((2-(3,5-Dimethoxybenzyl)cycloheptanecarboxamido)methyl)benzoic Acid]	6300	2	573	0.2	
COc1cc(CC2CCCCCC2C(=O)NCc2ccc(C(=O)O)cc2)cc(OC)c1 (single isomer, unassigned) [Example 12, 4-((2-(3,5-Dimethoxybenzyl)cycloheptanecarboxamido)methyl)benzoic Acid]	> 10000	9	1310	> 10000	
